Assay results taken from US20070093520A1, “Method of treatment of diarrhea-predominant irritable bowel syndrome in a subject” (priority 2005, published 2007).

System: diarrhea-predominant IBS subjects
Assay: 3007 Study: open-label 52-week safety study, adverse events and withdrawals
Details: Placebo/Cilansetron 2 mg

Cc1nccn1C[C@H]1CCc2c(c3cccc4c3n2CCC4)C1=O [cilansetron, (R)-(−)-4,5,6,8,9,10-hexahydro-10-[(2-methyl-1H-imidazol-1-yl)methyl]-11H-pyrido-[3,2,1-jk]-carbazol-11-one]
3 (1%) n (%): TEAE: Renal Function Analyses | TEAE: Streptococcal Infections | TEAE: Tendon Disorders | TEAE leading to permanent discontinuation: Abdominal Pain Upper (N=279) | TEAE leading to permanent discontinuation: Headache NOS (N=279) | TEAE leading to permanent discontinuation: Neoplasms Benign, Malignant and Unspecified (Incl Cysts and Polyps) (N=279) | TEAE leading to permanent discontinuation: Skin and Subcutaneous Tissue Disorders (N=279)
40 (14%) n (%): TEAE leading to permanent discontinuation: Gastrointestinal Disorders (N=279)
6 (2%) n (%): TEAE: Urinalysis NEC | TEAE leading to permanent discontinuation: Abdominal Pain NOS (N=279)
9 (3%) n (%): TEAE: Vomiting NOS
4 (1%) n (%): TEAE: Rectal Haemorrhage | TEAE: Triglyceride Analyses | TEAE leading to permanent discontinuation: General Disorders and Administration Site Conditions (N=279) | TEAE leading to permanent discontinuation: Nervous System Disorders (N=279)
10 (4%) n (%): TEAE: Rhinoviral Infections | TEAE: Urinary Tract Infection NOS
21 (8%) n (%): TEAE leading to permanent discontinuation: Constipation (N=279)
1 (<1%) n (%): TEAE: Protein Urine Present | TEAE: Pruritus Ani | TEAE: Rectal Disorder NOS | TEAE: Red Blood Cells Urine | TEAE: Renal Bruit | TEAE: Rheumatoid Arthritis | TEAE: Rheumatoid Arthritis Aggravated | TEAE: Rotator Cuff Syndrome | TEAE: Sinusitis Acute NOS | TEAE: Skin Infection NOS | TEAE: Somnolence | TEAE: Speech and Language Abnormalities | TEAE: Spinal Cord and Nerve Root Disorders NEC | TEAE: Spondylitic Myelopathy | TEAE: Stomach Discomfort | TEAE: Tinea Cruris | TEAE: Tinea Infections | TEAE: Tissue Enzyme Analyses NEC | TEAE: Tooth Abscess | TEAE: Tooth Infection | TEAE: Toothache | TEAE: Tremor | TEAE: Tremor (Excl Congenital) | TEAE: Trigger Finger | TEAE: Upper Limb Fractures and Dislocations | TEAE: Urine Bilirubin Increased | TEAE: Weight Decreased | TEAE: White Blood Cell Analyses | TEAE leading to permanent discontinuation: Back Pain (N=279) | TEAE leading to permanent discontinuation: Bladder Prolapse (N=279) | TEAE leading to permanent discontinuation: Chest Discomfort (N=279) | TEAE leading to permanent discontinuation: Chest Pain (N=279) | TEAE leading to permanent discontinuation: Chest Wall Pain (N=279) | TEAE leading to permanent discontinuation: Colitis Ischaemic (N=279) | TEAE leading to permanent discontinuation: Cough (N=279) | TEAE leading to permanent discontinuation: Depression (N=279) | TEAE leading to permanent discontinuation: Diarrhoea Aggravated (N=279) | TEAE leading to permanent discontinuation: Diarrhoea Haemorrhagic (N=279) | TEAE leading to permanent discontinuation: Dyspepsia (N=279) | TEAE leading to permanent discontinuation: Epigastric Discomfort (N=279) | TEAE leading to permanent discontinuation: Eye Disorders (N=279) | TEAE leading to permanent discontinuation: Faecal Impaction (N=279) | TEAE leading to permanent discontinuation: Faecal Incontinence (N=279) | TEAE leading to permanent discontinuation: Fatigue (N=279) | TEAE leading to permanent discontinuation: Fibroma NOS (N=279) | TEAE leading to permanent discontinuation: Gastrointestinal Motility Disorder NOS (N=279) | TEAE leading to permanent discontinuation: Haemorrhoidal Haemorrhage (N=279) | TEAE leading to permanent discontinuation: Hallucination NOS (N=279) | TEAE leading to permanent discontinuation: Hallucination, Auditory (N=279) | TEAE leading to permanent discontinuation: Lethargy (N=279) | TEAE leading to permanent discontinuation: Psychiatric Disorders (N=279) | TEAE leading to permanent discontinuation: Psychotic Disorder NOS (N=279) | TEAE leading to permanent discontinuation: Rash Macular (N=279) | TEAE leading to permanent discontinuation: Rash NOS (N=279) | TEAE leading to permanent discontinuation: Rectal Disorder NOS (N=279) | TEAE leading to permanent discontinuation: Rectal Tenesmus (N=279) | TEAE leading to permanent discontinuation: Renal and Urinary Disorders (N=279) | TEAE leading to permanent discontinuation: Respiratory, Thoracic and Mediastinal Disorders (N=279) | TEAE leading to permanent discontinuation: Stomach Discomfort (N=279) | TEAE leading to permanent discontinuation: Suicidal Ideation (N=279)
5 (2%) n (%): TEAE leading to permanent discontinuation: Flatulence (N=279)
217 (78%) n (%): TEAE: Total Number of Subjects with at Least One TEAE
8 (3%) n (%): TEAE: Skeletal and Cardiac Muscle Analyses | TEAE: Upper Respiratory Tract Infection NOS | TEAE: Viral Infections NEC
19 (7%) n (%): TEAE: Upper Respiratory Tract Infections - Pathogen Class Unspecified
12 (4%) n (%): TEAE: Urinary Tract Infections
2 (<1%) n (%): TEAE: Rectal Tenesmus | TEAE: Rheumatoid Arthropathies | TEAE: Skin Structures and Soft Tissue Infections | TEAE: Sleep Apnoea Syndrome | TEAE: Sleep Apnoeas | TEAE: Tendonitis | TEAE: Urine Ketone Body Present | TEAE: Urine Leukocyte Esterase Positive | TEAE: Vascular Auscultatory Investigations | TEAE: Vascular Tests NEC (Incl Blood Pressure) | TEAE: Viral Infection NOS | TEAE leading to permanent discontinuation: Abdominal Distension (N=279) | TEAE leading to permanent discontinuation: Abdominal Pain Lower (N=279) | TEAE leading to permanent discontinuation: Diarrhoea NOS (N=279) | TEAE leading to permanent discontinuation: Dizziness (N=279) | TEAE leading to permanent discontinuation: Musculoskeletal and Connective Tissue Disorders (N=279) | TEAE leading to permanent discontinuation: Rectal Haemorrhage (N=279)
13 (5%) n (%): TEAE: Sinusitis NOS
0 n (%): TEAE: Rectal Cramps | TEAE: Red Blood Cell Analyses | TEAE: Reproductive Organ and Breast Histopathology Procedures | TEAE: Respiratory Tract Infection NOS | TEAE: Rib Fracture | TEAE: Road Traffic Accident | TEAE: Seizures and Seizure Disorders NEC | TEAE: Sinus Headache | TEAE: Site Specific Injuries NEC | TEAE: Skin Fungal Infection NOS | TEAE: Soft Tissue Disorders NEC | TEAE: Spondyloarthropathies | TEAE: Spondylosis | TEAE: Staphylococcal Infection NOS | TEAE: Staphylococcal Infections | TEAE: Status Epilepticus | TEAE: Streptococcal Infection NOS | TEAE: Stress Fracture | TEAE: Temporomandibular Joint Disorder NOS | TEAE: Tension Headaches | TEAE: Thoracic Cage Fractures and Dislocations | TEAE: Tinea Pedis | TEAE: Tongue Coated | TEAE: Tongue Signs and Symptoms | TEAE: Tooth Disorder NOS | TEAE: Tooth Impacted | TEAE: Transient Global Amnesia | TEAE: Umbilical Hernia NOS | TEAE: Umbilical Hernias | TEAE: Urine Analysis Abnormal NOS | TEAE: Urobilin Urine Present | TEAE: Vasovagal Attack | TEAE: Weight Increased | TEAE: White Blood Cell Count Decreased | TEAE: White Blood Cells Urine Positive | TEAE leading to permanent discontinuation: Abdominal Pain Aggravated (N=279) | TEAE leading to permanent discontinuation: Alanine Aminotransferase Increased (N=279) | TEAE leading to permanent discontinuation: Angina Pectoris (N=279) | TEAE leading to permanent discontinuation: Appendicitis (N=279) | TEAE leading to permanent discontinuation: Asthma Aggravated (N=279) | TEAE leading to permanent discontinuation: Asthma NOS (N=279) | TEAE leading to permanent discontinuation: Blood Bilirubin Increased (N=279) | TEAE leading to permanent discontinuation: Blood Pressure Increased (N=279) | TEAE leading to permanent discontinuation: Blood Urine Present (N=279) | TEAE leading to permanent discontinuation: Bone Neoplasm Malignant (N=279) | TEAE leading to permanent discontinuation: Cardiac Disorders (N=279) | TEAE leading to permanent discontinuation: Dehydration (N=279) | TEAE leading to permanent discontinuation: Ear and Labyrinth Disorders (N=279) | TEAE leading to permanent discontinuation: Eructation (N=279) | TEAE leading to permanent discontinuation: Faecal Abnormality NOS (N=279) | TEAE leading to permanent discontinuation: Faeces Hard (N=279) | TEAE leading to permanent discontinuation: Gastric Irritation (N=279) | TEAE leading to permanent discontinuation: Headache NOS Aggravated (N=279) | TEAE leading to permanent discontinuation: Heart Rate Increased (N=279) | TEAE leading to permanent discontinuation: Hepatobiliary Disorders (N=279) | TEAE leading to permanent discontinuation: Hepatosplenomegaly NOS (N=279) | TEAE leading to permanent discontinuation: Hiatus Hernia (N=279) | TEAE leading to permanent discontinuation: Investigations (N=279) | TEAE leading to permanent discontinuation: Irritable Bowel Syndrome Aggravated (N=279) | TEAE leading to permanent discontinuation: Metabolism and Nutrition Disorders (N=279) | TEAE leading to permanent discontinuation: Migraine NOS (N=279) | TEAE leading to permanent discontinuation: Muscle Cramps (N=279) | TEAE leading to permanent discontinuation: Nausea (N=279) | TEAE leading to permanent discontinuation: Pregnancy, Puerperium and Perinatal Conditions (N=279) | TEAE leading to permanent discontinuation: Pruritus NOS (N=279) | TEAE leading to permanent discontinuation: Somnolence (N=279)
